≈ marks a conversion by molar mass, not a printed value. Like-named read-outs stand apart in the source and are kept apart here. Positions of bridges follow the written chain, without caps; N, C: chain ends. Non-standard residues stand in square brackets, D forms with d. Residues, ends and D or L forms follow the SMILES beside them. R8 = C=CCCCCCC[C@@](C)(N)C(=O)O; Cba = N[C@@H](CC1CCC1)C(=O)O; S5 = C=CCCC[C@](C)(N)C(=O)O
Experiments:
[1] = Solubility assay (kinetic solubility, PBS pH 7); type: physicochemical; details: pH 7, aqueous buffer, kinetic from dmso stock, pH 7, PBS; read-out: Solubility
Outline: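 Next, measure peak areas of sample and standard. Finally, multiply their ratio by the standard concentration to obtain solubility (µM).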

HCT116 cells = assay: Lactate dehydrogenase (LDH) release assay; type: cell-based
Outline: (§1)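 A p53 β-lactamase reporter HCT116 line, 8000 cells per well, is exposed to test compounds at 0.5% final DMSO and scored for LDH leakage.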

[2] = Lactate dehydrogenase (LDH) release assay; type: cell-based
Outline: as §1

physchem [3] = assay: physchem
[4] = Experimental LogD (partition coefficient); details: not stated, Partition Coeff LogD
[5] = Nanoclick permeability assay
Outline: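 Azido-peptide permeability was read as loss of NanoBRET signal (donor 450 nm, acceptor 610 nm) after adding NanoBret618-azide at 10 μM final.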

physchem [6] = assay: physchem; remark: listed apart in the source
[7] = 0% FBS 4Hr, read-out: LDH: Cytotoxicity assay EC50

| SMILES | solubility kinetic [1] | LDH: Cytotoxicity assay: % Effect (HCT116 cells) | EC50 ([2]; LDH: Cytotoxicity assay: EC50) | EPSA (physchem [3]) | logD [4] | cell entry EC50 [5] | EPSA (physchem [6]) | LDH: Cytotoxicity assay % Effect (HCT116 cells; 0% FBS 4Hr) | LDH: Cytotoxicity assay % Effect (HCT116 cells; 0% FBS 16Hr) | EC50 [2, 7] | EC50 ([2]; 4 hours, 0% serum, read-out: LDH Cytotoxicity assay EC50) |
| --- | --- | --- | --- | --- | --- | --- | --- | --- | --- | --- | --- |
| CC(=O)N[C@@H](CC(C)C)C(=O)N[C@H](C(=O)N[C@@H](Cc1ccccc1)C(=O)NC(C)(C)C(=O)N[C@H](CCC(=O)O)C(=O)N[C@@H](Cc1ccc(O)cc1)C(=O)N[C@@H](Cc1c[nH]c2ccccc12)C(=O)N[C@@H](CCC(N)=O)C(=O)N[C@@H](CC(C)C)C(=O)N[C@@H](CC1CCC1)C(=O)NC(C)(C)C(=O)N[C@@H](CO)C(=O)N[C@@H](C)C(=O)N[C@@H](C)C(N)=O)[C@@H](C)O [MP-789] | 28 µM (≈ 46.6 µg/mL) | 5.465% | > 50.6 µM | 196 A^2 | 2.12 |  |  |  |  |  |  |
| CC(=O)N[C@@H](CC(C)C)C(=O)N[C@H](C(=O)N[C@@H](Cc1ccccc1)C(=O)N[C@]1(C)CCCCCCC=CCCC[C@@](C)(C(=O)N[C@@H](CO)C(=O)N[C@@H](C)C(=O)N[C@@H](C)C(N)=O)NC(=O)[C@H](CC2CCC2)NC(=O)[C@H](CCC(N)=O)NC(=O)[C@H](CCC(N)=O)NC(=O)[C@H](Cc2c[nH]c3ccccc23)NC(=O)[C@H](Cc2ccc(O)cc2)NC(=O)[C@H](CCC(=O)O)NC1=O)[C@@H](C)O [MP-864] (Ac-LTF[R8]EYWQQ[Cba][S5]SAA-NH2; staple 4-11) | 86.5 µM (≈ 156 µg/mL) |  | > 50.6 µM | 212 A^2 | 2.59 |  |  |  |  |  |  |
| CC(=O)N[C@@H](CC(C)C)C(=O)N[C@H](C(=O)N[C@@H](Cc1ccccc1)C(=O)N[C@]1(C)CCCCCCC=CCCC[C@@](C)(C(=O)N[C@@H](CO)C(=O)N[C@@H](C)C(=O)N[C@@H](C)C(N)=O)NC(=O)[C@H](CC2CCC2)NC(=O)[C@H](CC(C)C)NC(=O)[C@H](CCC(N)=O)NC(=O)[C@H](Cc2c[nH]c3ccccc23)NC(=O)[C@H](C)NC(=O)[C@H](CCC(=O)O)NC1=O)[C@@H](C)O [MP-363] (Ac-LTF[R8]EAWQL[Cba][S5]SAA-NH2; staple 4-11) |  | 4.97% | > 50.6 µM | 195 A^2 | 2.85 |  |  |  |  |  |  |
| CC(=O)N[C@@H](CC(C)C)C(=O)N[C@H](C(=O)N[C@@H](Cc1ccccc1)C(=O)N[C@]1(C)CCCCCCC=CCCC[C@@](C)(C(=O)N[C@@H](CO)C(=O)N[C@@H](C)C(=O)N[C@@H](C)C(N)=O)NC(=O)[C@H](CC2CCC2)NC(=O)[C@H](C)NC(=O)[C@H](C)NC(=O)[C@H](Cc2c[nH]c3ccccc23)NC(=O)[C@H](Cc2ccc(O)cc2)NC(=O)[C@H](CCC(=O)O)NC1=O)[C@@H](C)O [MP-865] (Ac-LTF[R8]EYWAA[Cba][S5]SAA-NH2; staple 4-11) | 84.5 µM (≈ 143 µg/mL) |  | > 50.6 µM | 211 A^2 | 2.94 |  |  |  |  |  |  |
| CC(=O)N[C@@H](CCCCN=[N+]=[N-])C(=O)NCCC(=O)N[C@@H](CC(C)C)C(=O)N[C@H](C(=O)N[C@@H](Cc1ccccc1)C(=O)N[C@]1(C)CCCCCCC=CCCC[C@@](C)(C(=O)N[C@@H](CO)C(=O)N[C@@H](C)C(=O)N[C@@H](C)C(N)=O)NC(=O)[C@H](CC2CCC2)NC(=O)[C@H](CCC(N)=O)NC(=O)[C@H](C)NC(=O)[C@H](Cc2c[nH]c3ccccc23)NC(=O)[C@H](Cc2ccc(O)cc2)NC(=O)[C@H](CCCCN)NC1=O)[C@@H](C)O [MP-548, AZIDE-ATSP-7041 (E5K)] | 5 µM (≈ 9.85 µg/mL) |  |  |  | 3.25 | 1.02 µM | 213 A^2 | 84.33% | 14.03% | 12.3 µM | 12.2 µM |
| CC(=O)N[C@@H](CCCCN=[N+]=[N-])C(=O)NCCC(=O)N[C@@H](CC(C)C)C(=O)N[C@@H](CCCCN)C(=O)N[C@@H](Cc1ccccc1)C(=O)N[C@]1(C)CCCCCCC=CCCC[C@@](C)(C(=O)N[C@@H](CO)C(=O)N[C@@H](C)C(=O)N[C@@H](C)C(N)=O)NC(=O)[C@H](CC2CCC2)NC(=O)[C@H](CCC(N)=O)NC(=O)[C@H](C)NC(=O)[C@H](Cc2c[nH]c3ccccc23)NC(=O)[C@H](Cc2ccc(O)cc2)NC(=O)[C@H](CCC(=O)O)NC1=O [MP-547, AZIDE-ATSP-7041 (T2K)] | 3 µM (≈ 5.99 µg/mL) |  |  |  | 3.02 | 0.0722 µM | 229 A^2 | 26.9% | 15.73% | > 50 µM |  |
